These results are taken from patent US20260273074A1, “FERRITIN-TARGETING PROTACS AND METHODS OF INDUCING PYROPTOSIS” (Wisconsin Alumni Research Foundation, priority 2023, published 2026).

Data set [1] relates to T1, ferritin (Mus musculus).
T1 construct: ferritin expression levels in B16F10 cells were evaluated; endogenous in cells; host or cells: B16F10 (murine melanoma)
As to the kind of experiment: Western blot of ferritin expression (ferritin degradation) in B16F10 cells. The following applies: B16F10 cells. The class given is cell-based, murine. On the procedure: Western blot analysis: After various treatments, ferritin expression levels in B16F10 cells were evaluated to investigate the DeFer-2-mediated ferritin degradation. Briefly, B16F10 cells were seeded in 6-well culture plates (5×10^4 cells per well) and cultured for 24 h. Then the medium in the corresponding wells except the negative control was replaced with 1 mL of medium containing ferritin degraders, albumin nanoparticles, the epimer formulations, the combination of VHL ligand and oleic acid, or the combination of the degrader and VHL ligand at the indicated concentrations. […] The lysates were centrifuged at 12,000 rpm for 10 min at 4° C., followed by quantification of the total proteins in the supernatant through the bicinchoninic acid assay (BCA) assay. Afterward, the proteins in the supernatant were mixed with the loading buffer and heated at 95° C. for 15 min. Equal amounts of proteins from different samples were loaded into 15% SDS-polyacrylamide gel (20 μg protein per lane) to separate target proteins. After separation, proteins were transferred to polyvinylidene fluoride (PVDF) membranes before the membranes were blocked with 5% nonfat milk in PBST. Then proteins were incubated with primary antibodies overnight at 4° C., followed by the incubation with the goat-anti-rabbit IgG H&L (HRP) secondary antibodies at room temperature for 2 h. Finally, the bands were detected with electrochemiluminescence (ECL) western blot substrate for imaging, and ImageJ software was used for quantification.
Background: A western blot detects proteins with antibodies after separation by electrophoresis.

Data set [2] deals with T2, apoferritin from equine spleen (Equus caballus, UniProt P02791).
T2 construct: the apoferritin from equine spleen (A3660, Sigma-Aldrich) that is not combined with iron was used; purchased Sigma-Aldrich A3660; host or cells: equine spleen (tissue-derived)
T2 sequence (P02791 2-175 limits assumed): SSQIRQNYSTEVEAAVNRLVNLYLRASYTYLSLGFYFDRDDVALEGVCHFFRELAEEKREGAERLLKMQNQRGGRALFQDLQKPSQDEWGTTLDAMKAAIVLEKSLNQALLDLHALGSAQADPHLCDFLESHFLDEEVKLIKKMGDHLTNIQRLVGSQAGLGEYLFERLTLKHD
Nature of the data set: Isothermal titration calorimetry (ITC) binding to ferritin. How it is done: As for the ferritin proteins, the apoferritin from equine spleen (A3660, Sigma-Aldrich) that is not combined with iron was used. Before the ITC test, 1 mL of apoferritin in glycerol solution (50% glycerol and 0.075 M NaCl) was placed in a dialysis bag with a molecular weight cut-off of 3 kDa. The dialysis bags were then immersed in the prepared solution (20 mM Tris-HCl, pH 8.5, and 130 mM NaCl) and stirred at room temperature. The dialysis buffer was changed every 24 h for three times, and the last buffer was collected and 0.05% DMSO was added to serve as the ITC buffer. As for the oleic acid, 12 μM apoferritin in the ITC buffer was placed in the ITC cell, and the syringe was full of 250 μM oleic acid in the same ITC buffer. Besides the first injection with 5 μL of the oleic acid solution, 18 aliquots with 10 μL of the oleic acid solution were titrated into the apoferritin solution with a time interval of 300 s. […] Besides the first injection with 1 μL of the apoferritin solution, 25 aliquots were titrated with a time interval of 300 s. Raw data were corrected for control titrations (the solution in the syringe into the blank ITC buffer in the cell) and integrated using Origin 7.0 (MicroCal). Binding kinetics parameters, including N, Kd, ΔH, and ΔS, were calculated using a single-class binding site model.

Data set [3] concerns T1, ferritin (Mus musculus). Nature of the data set: Quantitative proteomics analysis of whole-cell B16F10 proteins. The class given is cell-based, murine. The following applies: B16F10 cells, 0.5 μM, 12 h. How it is done:
Quantitative proteomics analysis: Cell culture and proteomic sample preparation: B16F10 cells were seeded in T75 cell culture flasks (2×10^6 cells per well) and cultured for 24 h. […] After incubation for 12 h, cells were washed with cold PBS twice and digested with 2 mL trypsin. The cell pellets were collected in 1.5 mL Eppendorf tubes through centrifugation at 1200 rpm for 3 minutes at 4° C. As for the proteomic sample preparation, cell pellets placed on the ice were completely resuspended with a cold 100 mM ammonium bicarbonate (ABC) solution. […] Based on the quantification results, an appropriate volume of lysate supernatant containing 20 μg proteins was collected and incubated with 10 mM DL-dithiothreitol (DTT) at 37° C. for 30 min. […]
LC-MS/MS analysis: The LC separations were performed with a Waters™ Nano-Acquity UPLC System. […] Eluted peptides were analyzed on Thermo Orbitrap Q-Exactive™ MS operated in positive ion mode with nano-ESI high-resolution Q-Exactive™ analysis. […]
Data analysis: All the resulting raw files were analyzed using Proteome Discoverer software v.2.4 (Thermo Fisher Scientific), SEQUEST HT using Uniprot Mus musculus reference proteome with a decoy database added to establish control variability and false discovery rates. […]

Data set [4] in a line: Solubility in the ITC buffer. The class given is physicochemical. Particulars: 20 mM Tris-HCl pH 8.5, 130 mM NaCl, 0.05% DMSO.

Molecules are shown by their SMILES.

In the case of `CCCCCCCCC=CCCCCCCCC(=O)NCCCC(=O)NC(C(=O)N1CC(O)CC1C(=O)NCc1ccc(-c2scnc2C)cc1)C(C)(C)C` (centres unmarked) [DeFer-2], the “ferritin expression over time” value in the data set with ferritin (Mus musculus) [1] (0.5 μM, 0-24 h) is “reduced the ferritin expression in a time-dependent manner”. In addition, the ferritin degradation entry in the data set with ferritin (Mus musculus) [1] (0.5 μM, 12 h (FIG. 5A)) is “successfully induced the ferritin degradation”. Also, the “degradation capacity compared among the three PROTACs” value in the data set on ferritin (Mus musculus) [1] (0.5 μM, different time points) is “most potent degradation capacity with a longer duration of action”. For the same compound, in the data set with ferritin (Mus musculus) [1] (5 μM, 12 h), the maximum ferritin degraded worked out at 58%. Moreover, in data set [2], binding was put at a Kd of 17.1 ± 1.96 µM. Also, the “reduction of ferritin levels compared to DeFer-2epi” value in the data set on ferritin (Mus musculus) [3] (proteomics) turned out to be 44.1%. Also, the “selectivity of ferritin degradation (global protein abundance)” value in the data set with ferritin (Mus musculus) [3] (versus DeFer-2epi) is reported as “strong on-target effect”. In addition, in data set [4], the “solubility in the ITC buffer” value was “relatively low solubility”.

Broadly, the Kd is the free concentration of one partner at which half of the binding sites on the other are occupied at equilibrium, for simple one-to-one binding. Higher therefore signals a looser complex.
